{"source": "paper PMC6959985", "about": "(Analytical chemistry, 2019)", "key": {"KLHDC2 [1]": {"target": "T1, KLHDC2 (Homo sapiens, UniProt Q9Y2U9)", "T1 sequence (Q9Y2U9 1-406)": "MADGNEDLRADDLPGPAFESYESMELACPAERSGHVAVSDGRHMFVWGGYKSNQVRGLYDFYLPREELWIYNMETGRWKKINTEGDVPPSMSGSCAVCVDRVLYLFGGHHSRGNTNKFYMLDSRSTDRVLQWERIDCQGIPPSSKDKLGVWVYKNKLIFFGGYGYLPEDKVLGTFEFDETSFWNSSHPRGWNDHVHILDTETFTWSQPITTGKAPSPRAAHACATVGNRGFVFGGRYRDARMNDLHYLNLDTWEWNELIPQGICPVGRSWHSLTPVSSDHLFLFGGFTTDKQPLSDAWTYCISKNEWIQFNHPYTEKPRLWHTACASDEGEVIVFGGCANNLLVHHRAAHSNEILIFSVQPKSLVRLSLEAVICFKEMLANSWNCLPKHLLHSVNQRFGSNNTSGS"}, "KLHDC2 [2]": {"target": "T1, KLHDC2", "details": "recently characterized selenoprotein fragment, comparison value; ref [19]; cited from earlier work"}, "KLHDC2 [3]": {"target": "T1, KLHDC2", "assay": "Luminescence-based competition assay", "details": "discussion of binding of both peptides; HLRGSPPPMAGG characterized in ref [19]"}, "[4]": {"target": "T2, KLHDC2 (as used in the AlphaScreen competition assay) (human, UniProt Q9Y2U9 1-406)", "T2 sequence (looked up)": "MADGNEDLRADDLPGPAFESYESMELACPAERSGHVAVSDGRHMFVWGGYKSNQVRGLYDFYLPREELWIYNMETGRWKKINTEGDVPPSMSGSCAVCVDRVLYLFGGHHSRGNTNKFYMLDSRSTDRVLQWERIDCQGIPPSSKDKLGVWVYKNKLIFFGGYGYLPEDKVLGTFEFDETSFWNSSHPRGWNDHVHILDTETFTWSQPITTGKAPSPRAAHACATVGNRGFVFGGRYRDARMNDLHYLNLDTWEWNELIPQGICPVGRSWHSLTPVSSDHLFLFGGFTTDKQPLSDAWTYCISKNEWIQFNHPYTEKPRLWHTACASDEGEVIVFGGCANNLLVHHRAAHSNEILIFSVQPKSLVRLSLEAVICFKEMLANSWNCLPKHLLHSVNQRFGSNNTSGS", "assay": "AlphaScreen or HTRF"}}, "note": "Where no end group is shown, it is not given here.", "data": [{"molecule": "GGGSGGG", "values": [{"measurement": "Identification as interacting peptide by native top-down MS", "setting": "KLHDC2 [1]", "value": "identified using native top-down MS"}]}, {"molecule": "EKGGGSGGG", "values": [{"measurement": "Identification as interacting peptide by native top-down MS", "setting": "KLHDC2 [1]", "value": "identified using native top-down MS"}]}, {"molecule": "HLRGSPPPMAGG", "values": [{"measurement": "IC50", "setting": "KLHDC2 [2]", "value": 3.4, "unit": "nM"}, {"measurement": "Binding to KLHDC2", "setting": "KLHDC2 [3]", "value": "extremely tight binding"}]}, {"molecule": "ASDEGEVIVFGG [ASDEGEVIVFGG]", "values": [{"measurement": "Identification as interacting peptide by native top-down MS", "setting": "KLHDC2 [1]", "value": "identified using native top-down MS"}]}, {"molecule": "ASDEGEVIVFGG", "note": "[synthesized peptide F (ASDEGEVIVFGG)]", "values": [{"measurement": "IC50", "setting": "[4]", "value": 5.3, "unit": "nM"}]}]}
